Test results taken from PubChem BioAssay AID1918998 (Molecular Pharmacology Branch, DTP, NCI, 2023).
pIC50: −log10 of the molar value. Several values for one entry are separate records, joined by “and”; a condition that tells them apart may be missing. Identical values can stand only once.

Tested on: 521955-158-R2-J5-PDC complex spheroid growth
Assay: Anticancer human tumor 521955-158-R2-J5-PDC patient-derived pancreatic carcinoma cell line growth inhibition [AhR]
Details: for viability, T/C: stronger effect = lower value
In short: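 Agents were dosed in half-log steps down from roughly clinical Cmax, or from 10 microM where Cmax was unknown, alone and with AhR antagonists. Read-out: percent test/control growth of tumor spheroids containing HUVEC and MSC stromal cells.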

[1] = curve of first compound, second compound 0.1 µM
[2] = curve of first compound, second compound 0.316 µM
[3] = curve of first compound, second compound 1 µM
[4] = curve of first compound, second compound 3.16 µM
[5] = curve of first compound, second compound 10 µM
[6] = second compound 0.1 µM, first compound 0.0316 µM
[7] = second compound 0.1 µM, first compound 0.1 µM
[8] = second compound 0.1 µM, first compound 0.316 µM
[9] = second compound 0.1 µM, first compound 1 µM
[10] = second compound 0.1 µM, first compound 3.16 µM
[11] = second compound 0.1 µM, first compound 10 µM
[12] = second compound 0.316 µM, first compound 0.0316 µM
[13] = second compound 0.316 µM, first compound 0.1 µM
[14] = second compound 0.316 µM, first compound 0.316 µM
[15] = second compound 0.316 µM, first compound 1 µM
[16] = second compound 0.316 µM, first compound 3.16 µM
[17] = second compound 0.316 µM, first compound 10 µM
[18] = second compound 1 µM, first compound 0.0316 µM
[19] = second compound 1 µM, first compound 0.1 µM
[20] = second compound 1 µM, first compound 0.316 µM
[21] = second compound 1 µM, first compound 1 µM
[22] = second compound 1 µM, first compound 3.16 µM
[23] = second compound 1 µM, first compound 10 µM
[24] = second compound 3.16 µM, first compound 0.0316 µM
[25] = second compound 3.16 µM, first compound 0.1 µM
[26] = second compound 3.16 µM, first compound 0.316 µM
[27] = second compound 3.16 µM, first compound 1 µM
[28] = second compound 3.16 µM, first compound 3.16 µM
[29] = second compound 3.16 µM, first compound 10 µM
[30] = second compound 10 µM, first compound 0.0316 µM
[31] = second compound 10 µM, first compound 0.1 µM
[32] = second compound 10 µM, first compound 0.316 µM
[33] = second compound 10 µM, first compound 1 µM
[34] = second compound 10 µM, first compound 3.16 µM
[35] = second compound 10 µM, first compound 10 µM
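Throughout, for viability, T/C: spheroids mix tumor cells with HUVEC endothelium and human MSC stroma; luminescence taken as viability surrogate after a week of drug exposure.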

| Structure (SMILES) | pIC50 [1] | pIC50 [2] | pIC50 [3] | pIC50 [4] | pIC50 [5] | viability, T/C [6] [%] | viability, T/C [7] [%] | viability, T/C [8] [%] | viability, T/C [9] [%] | viability, T/C [10] [%] | viability, T/C [11] [%] | viability, T/C [12] [%] | viability, T/C [13] [%] | viability, T/C [14] [%] | viability, T/C [15] [%] | viability, T/C [16] [%] | viability, T/C [17] [%] | viability, T/C [18] [%] | viability, T/C [19] [%] | viability, T/C [20] [%] | other results |
| --- | --- | --- | --- | --- | --- | --- | --- | --- | --- | --- | --- | --- | --- | --- | --- | --- | --- | --- | --- | --- | --- |
| O=C(C=Cc1cccc(S(=O)(=O)Nc2ccccc2)c1)NO + Cc1ccccc1N=Nc1ccc(NC(=O)c2ccnn2C)c(C)c1 | < 5.00 | 5.18 | < 5.00 | 5.53 | 5.45 | 95.4 | 104 | 121 | 96 | 72.6 | 52 | 102 | 115 | 128 | 89.2 | 65.5 | 41.5 | 105 | 136 | 136 | viability, T/C [21]: 102%; viability, T/C [22]: 59.5%; viability, T/C [23]: 48.9%; viability, T/C [24]: 105%; viability, T/C [25]: 116%; viability, T/C [26]: 154%; viability, T/C [27]: 93.7%; viability, T/C [28]: 54.2%; viability, T/C [29]: 39.4%; viability, T/C [30]: 147%; viability, T/C [31]: 146%; viability, T/C [32]: 129%; viability, T/C [33]: 87.9%; viability, T/C [34]: 56.6%; viability, T/C [35]: 24.9% |
| NS(=O)(=O)OCC1CC(n2ccc3c(NC4CCc5ccccc54)ncnc32)CC1O (centres undefined) | – | – | – | – | – | – | – | – | – | – | – | – | – | – | – | – | – | – | – | – | viability, T/C (compound 0.0316 µM): 86.2% and 98.4% and 88.1%; viability, T/C (compound 0.1 µM): 99.3% and 98.1% and 95.9%; viability, T/C (compound 0.316 µM): 83.6% and 87.9% and 66%; viability, T/C (compound 1 µM): 54.8% and 54.6% and 36.6%; viability, T/C (compound 3.16 µM): 36.5% and 32.9% and 19.3%; viability, T/C (compound 10 µM): 30.5% and 21% and 16.8%; pIC50 (curve of compound): 5.88 and 6.22 |
| CC(C)c1c(-c2ccccc2)nc2c(C#N)c[nH]n2c1=O | – | – | – | – | – | – | – | – | – | – | – | – | – | – | – | – | – | – | – | – | viability, T/C (compound 0.0316 µM): 86.8% and 83.8% and 96.4%; viability, T/C (compound 0.1 µM): 103% and 100% and 89.5%; viability, T/C (compound 0.316 µM): 96.2% and 76.9% and 87.5%; viability, T/C (compound 1 µM): 85.3% and 75.7% and 64.5%; viability, T/C (compound 3.16 µM): 88.3% and 95.4% and 70.7%; viability, T/C (compound 10 µM): 83.1% and 71.7% and 86.4%; pIC50 (curve of compound): < 5.00 |
| Nc1ccccc1NC(=O)c1ccc(CNC(=O)OCc2cccnc2)cc1 + CC(CO)NC(=O)c1cc(-c2ccc(Cl)cc2)nn(-c2cnn(C)c2)c1=O | 5.34 | 5.43 | 5.53 | 5.44 | 5.47 | 119 | 126 | 123 | 87.9 | 66.2 | 22.9 | 111 | 130 | 114 | 85.9 | 57.1 | 25.2 | 118 | 134 | 120 | viability, T/C [21]: 77.1%; viability, T/C [22]: 54.6%; viability, T/C [23]: 20%; viability, T/C [24]: 115%; viability, T/C [25]: 109%; viability, T/C [26]: 117%; viability, T/C [27]: 75.6%; viability, T/C [28]: 58.8%; viability, T/C [29]: 17.6%; viability, T/C [30]: 94.7%; viability, T/C [31]: 91%; viability, T/C [32]: 101%; viability, T/C [33]: 81.6%; viability, T/C [34]: 52.6%; viability, T/C [35]: 14.1% |
| Nc1ccn(C2OC(CO)C(O)C2(F)F)c(=O)n1 (centres undefined) + CC(CO)NC(=O)c1cc(-c2ccc(Cl)cc2)nn(-c2cnn(C)c2)c1=O | 6.29 | 6.26 | 6.30 | 6.75 | 7.00 | 59.8 | 75.3 | 72.4 | 24.4 | 13.2 | 13.6 | 56 | 73.8 | 86.4 | 26.1 | 11.4 | 9.09 | 90.5 | 87.8 | 68.7 | viability, T/C [21]: 22.6%; viability, T/C [22]: 14.2%; viability, T/C [23]: 14.8%; viability, T/C [24]: 78.1%; viability, T/C [25]: 56.4%; viability, T/C [26]: 45.5%; viability, T/C [27]: 20.9%; viability, T/C [28]: 16.4%; viability, T/C [29]: 11.9%; viability, T/C [30]: 50.2%; viability, T/C [31]: 54.5%; viability, T/C [32]: 36.3%; viability, T/C [33]: 22.5%; viability, T/C [34]: 15.5%; viability, T/C [35]: 10.5% |
